Measurements as given in patent US11998602B2, “Methods for promoting myelination and for treating demyelinating diseases” (The Scripps Research Institute, priority 2018, dated 2024).

Key:
[1] = tested on: primary mouse cortical neurons co-cultured with OPCs; test: In vitro OL maturation assay, MBP-colocalization with co-cultured axons; type: cell-based, rat
Method: In vitro OL maturation assay. Cortical and hippocampal tissue was dissected from C57BL/6 mice at embryonic day 14 and dissociated in 0.5% Trypsin with 100 U/mL DNase I diluted in HBSS (+/+) for 10 min at 37° C. Reaction was stopped by supplementing to a final concentration of 10% v/v FBS, 100 μg/mL Soybean Trypsin Inhibitor and 10 U/mL DNase I. Cells were resuspended in plating media consisting of equal volumes of FCS, HBSS (+/+), High-Glucose DMEM with L-glutamine, and F-12 with L-glutamine, then plated onto acid pre-washed German glass coverslips coated with 50 μg/mL Poly-D-Lysine and 20 μg/mL Laminin at a density of 50,000 cells/cm^2. Cells were allowed to attach for 2 hrs and then coverslips were rinsed with PBS before being transferred to a 24-well plate containing 0.5 mL growth media consisting of: Neurobasal medium, B27 supplement (Gibco), 0.5× Glutamax (Thermo), 5 μg/mL gentamycin and 5 μM glutamic acid. Half of the cell media was replaced after 3 DIV with supplemental growth media not containing glutamic acid^47. After 5 DIV, rat-derived cortical OPCs were added to the neuronal culture at a density of 5,000 cells/cm^2. Co-culture media used to resuspend and plate OPCs consisting of a 1:3 mixture of neuronal growth supplement (as above) and oligodendrocyte differentiation media, containing DMEM/F-12 (with L-glutamine), insulin-free N2 supplement, 1× Glutamax, 1×MEM non-essential amino acids, 1× β-mercaptoethanol, 2 ng/mL PDGF and 5 μg/mL gentamycin. All drugs and taurine co-treatment were added once to culture upon plating of OPCs at the following concentrations: 0.5 μM benztropine, 1.0 μM miconazole, each with or without 2 mM taurine. Cultures were maintained by replacing half of the media every three days, maintaining an equivalent concentration of taurine throughout in appropriate wells. […] Co-localization was quantified within regions of interest delineated as the periphery of individual oligodendrocytes. The co-localization index (adapted from a previously described method^48) was calculated as total proportion of co-localized 3D surface area between Tuj1 (neuron) and oligodendrocyte (MBP) over total Tuj1 (neuronal process) area enclosed within each oligodendrocyte process tree as the selected region of interest (ROI, see FIG. 3B″). Mean colocalization values for each condition were normalized to the DMSO condition mean analyzed statistically using Prism software (GraphPad, v7) for two-way ANOVA comparisons (Drug Treatment×Taurine Supplement) with Tukey post-tests for statistical significance. […]

[2] = tested on: OPCs; test: Mitochondrial respiration assay (oxygen consumption rate, XFe96 Seahorse); type: cell-based, rat; settings: 2 mM taurine, day 6, basal and benztropine- or miconazole-induced differentiation conditions
Method: Mitochondrial respiration assay. Cellular oxygen consumption rate (OCR) was measured using an XFe96 extracellular flux analyzer (Seahorse Biosciences). OPCs were seeded at 40,000 cells/well in PLP-coated XFe96 plates and cultured for 6 days with taurine (2 and 20 mM) alone, or together with miconazole and benztropine. Cells were then incubated in assay medium (DMEM with 20 mM glucose, 5 mM pyruvate and 5 mM sodium bicarbonate, pH˜7.4) for at least 30 min prior to the assay. Media to deliver a final assay well concentration corresponding to of 1 μM oligomycin, 2 μM carbonyl cyanide 4-(trifluoromethoxy) phenylhydrazone (FCCP) and 2 μM rotenone+2 μM antimycin A were pre-loaded into the compound delivery ports of the system. The assay starts with the recording of the basal OCR, followed by recording of the OCR in response to different compounds that constitute the Mitochondria Stress Test (Seahorse Biosciences, Agilent). Once the basal OCR was measured, the compounds were added sequentially and the effects on OCR measured 3 times every 5 min. Oligomycin blocks ATP synthase; FCCP dissipates the inner membrane potential enabling maximum electron flux through the electron transport chain (ETC); rotenone+antimycin A inhibit complexes I and III, respectively, thereby blocking the entry of electrons in the ETC and shutting down mitochondrial activity.

For NCCS(=O)(=O)O [taurine, 2-aminoethanesulfonic acid], the “MBP-colocalization with axons, treatment alone vs. DMSO (Tukey post hoc)” value ([1]; 0.5 μM benztropine, 1.0 μM miconazole or 2 mM taurine alone, 14 days) was “no significant difference”, the “Index of MBP-colocalization with axons” value ([1]; 2 mM taurine in cultures treated with benztropine or miconazole, 14 days of neuron-OPC co-culture) was “significantly increase” and the “Oxygen consumption rate (OCR) values” [2] was “significantly increase”.
